Measured values reported in US11549123B2, “Plant EPSP synthases and methods of use” (PIONEER HI-BRED INTERNATIONAL, INC., priority 2015, dated 2023).

What was measured:
Format in all cases: biochemical
[1] = molecular target: Zea mays EPSPS variant 771-C2 (A4W, H54M, L98C, G102A, K173R, I208L, K243E, E302S, T361S, E391P, D402G, A416G, V438R, S440R, T441Q, F442V), SEQ ID NO:4 (Zea mays, UniProt O24566, A3W/A415G/D401G/E301S/E390P/F441V/G101A/H53M/I207L/K172R/K242E/L97C/S439R/T360S/T440Q/V437R); experiment: EPSPS substrate saturation kinetics, 771-C2
Protocol: EPSPS activity was determined by quantifying the phosphate generated from the EPSPS reaction. Release of inorganic phosphate was coupled to reaction with 2-amino-6-mercapto-7-methylpurine ribonucleoside, catalyzed by purine-nucleoside phosphorylase (M R Webb, Proc. Natl. Acad. Sci. 89:4884-4887, 1992). The absorbance change that occurs was monitored at 360 nm, where the extinction is 11,200 M^−1 cm^−1, with a Spectramax plate reader (Molecular Devices). To determine kinetic parameters, the varied substrate was present at seven concentrations (the eighth being the blank, containing no substrate) ranging from 4 to 400 uM and the unvaried substrate present at saturation. […] Reactions were monitored with a Spectramax plate reader. […] KI was then calculated from the following form of the Michaelis-Menten equation for competitive inhibition: KI=KM[I]/(KM app−KM) KM approximates the dissociation constant of the enzyme-substrate complex while kcat is the rate of conversion of substrate to product when the substrate concentration is saturating. kcat/KM is a widely accepted parameter for catalytic efficiency when substrate concentration is low (˜KM). […] The parameter kcat/KM×KI is used to quantify both catalytic efficiency and insensitivity and thus the overall fitness of the enzyme. […]

[2] = molecular target: Zea mays EPSPS variant 208V 313G (Zea mays, UniProt O24566, E312G/I207V); experiment: EPSPS reaction rate with or without 10 uM glyphosate, 208V 313G; conditions: pH 7; read-out: Reaction rate with 10 μM glyph, % no glyph; note: 50 µM PEP and S3P
[3] = molecular target: T1, Zea mays EPSPS variant Zm-A189T (Zea mays, UniProt O24566, A188T); experiment: Substrate saturation kinetic analysis with glyphosate, Zm-A189T
T1 sequence (O24566 with tags, fused parts or gaps A188T): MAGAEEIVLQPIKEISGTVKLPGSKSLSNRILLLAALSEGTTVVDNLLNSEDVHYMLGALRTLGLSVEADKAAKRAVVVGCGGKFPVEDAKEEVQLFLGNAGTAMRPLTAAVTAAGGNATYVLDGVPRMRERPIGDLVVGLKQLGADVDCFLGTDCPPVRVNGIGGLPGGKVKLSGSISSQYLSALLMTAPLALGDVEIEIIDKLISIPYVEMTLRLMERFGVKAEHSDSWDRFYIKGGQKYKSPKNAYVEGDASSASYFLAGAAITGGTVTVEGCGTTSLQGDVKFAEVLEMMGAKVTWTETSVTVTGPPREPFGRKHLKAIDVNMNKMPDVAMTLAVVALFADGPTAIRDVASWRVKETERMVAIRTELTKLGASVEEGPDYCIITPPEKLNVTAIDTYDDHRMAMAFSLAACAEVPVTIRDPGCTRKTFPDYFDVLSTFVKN

Sequence of Zea mays EPSPS variant 208V 313G (O24566 1-444 I207V/E312G): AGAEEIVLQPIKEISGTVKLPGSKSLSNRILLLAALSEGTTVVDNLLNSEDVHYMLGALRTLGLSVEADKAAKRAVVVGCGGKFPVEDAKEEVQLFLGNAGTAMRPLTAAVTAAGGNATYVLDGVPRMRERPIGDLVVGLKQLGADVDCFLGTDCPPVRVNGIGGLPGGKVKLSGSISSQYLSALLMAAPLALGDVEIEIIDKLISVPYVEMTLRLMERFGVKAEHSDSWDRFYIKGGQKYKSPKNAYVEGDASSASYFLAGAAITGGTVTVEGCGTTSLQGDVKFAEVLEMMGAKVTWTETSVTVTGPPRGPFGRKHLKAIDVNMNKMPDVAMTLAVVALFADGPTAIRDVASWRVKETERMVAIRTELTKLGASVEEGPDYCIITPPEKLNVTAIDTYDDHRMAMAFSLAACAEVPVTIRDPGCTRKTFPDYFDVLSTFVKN

O=C(O)CNCP(=O)(O)O [glyphosate, N-phosphonomethylglycine]
Ki [1]: 350 µM
(kcat/KM)*KI ([1]; PEP as substrate, glyphosate as inhibitor): 5800
activity at 10 µM [2]: 3.21%
Ki [3]: 337 µM
(kcat/KM)*KI ([3]; substrate saturation, Zm-A189T): 283
